Test results taken from PMC5154685 (Journal of medicinal chemistry, 2016).

Tests used:
[1] = target: Eis_Mtb acetyltransferase (Mycobacterium tuberculosis, UniProt P9WFK7); format: biochemical; settings: for Extent of Eis inhibition of HTS compounds (in words): follow-up description
AAC(6′)-Ie/APH(2″)-Ia = AAC(6′)-Ie/APH(2″)-Ia (Staphylococcus aureus, UniProt P0A0C1); experiment: Inhibitor selectivity, AAC; format: biochemical; settings: concentrations as high as 200 μM
AAC(2′)-Ic = AAC(2′)-Ic (Mycobacterium tuberculosis, UniProt P9WQG9); experiment: Inhibitor selectivity, AAC
Chain of AAC(2′)-Ic (P9WQG9 whole entry): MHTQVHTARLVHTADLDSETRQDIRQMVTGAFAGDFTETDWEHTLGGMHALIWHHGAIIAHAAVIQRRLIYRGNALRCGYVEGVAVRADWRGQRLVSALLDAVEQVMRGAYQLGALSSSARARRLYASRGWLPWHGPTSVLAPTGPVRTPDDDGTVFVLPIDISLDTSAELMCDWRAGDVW

Chain of Eis_Mtb acetyltransferase (P9WFK7 whole entry): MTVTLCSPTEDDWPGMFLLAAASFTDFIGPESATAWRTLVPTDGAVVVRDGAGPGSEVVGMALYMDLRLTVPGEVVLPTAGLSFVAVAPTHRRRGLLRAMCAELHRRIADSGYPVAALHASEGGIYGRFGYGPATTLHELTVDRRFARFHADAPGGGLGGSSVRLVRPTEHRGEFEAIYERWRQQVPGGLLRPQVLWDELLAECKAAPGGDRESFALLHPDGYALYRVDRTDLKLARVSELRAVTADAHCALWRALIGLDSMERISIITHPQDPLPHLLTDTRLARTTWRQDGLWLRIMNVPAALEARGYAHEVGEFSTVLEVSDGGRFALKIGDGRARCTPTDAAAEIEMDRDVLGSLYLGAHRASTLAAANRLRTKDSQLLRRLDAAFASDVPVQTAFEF
Chain of AAC(6′)-Ie/APH(2″)-Ia (P0A0C1 whole entry): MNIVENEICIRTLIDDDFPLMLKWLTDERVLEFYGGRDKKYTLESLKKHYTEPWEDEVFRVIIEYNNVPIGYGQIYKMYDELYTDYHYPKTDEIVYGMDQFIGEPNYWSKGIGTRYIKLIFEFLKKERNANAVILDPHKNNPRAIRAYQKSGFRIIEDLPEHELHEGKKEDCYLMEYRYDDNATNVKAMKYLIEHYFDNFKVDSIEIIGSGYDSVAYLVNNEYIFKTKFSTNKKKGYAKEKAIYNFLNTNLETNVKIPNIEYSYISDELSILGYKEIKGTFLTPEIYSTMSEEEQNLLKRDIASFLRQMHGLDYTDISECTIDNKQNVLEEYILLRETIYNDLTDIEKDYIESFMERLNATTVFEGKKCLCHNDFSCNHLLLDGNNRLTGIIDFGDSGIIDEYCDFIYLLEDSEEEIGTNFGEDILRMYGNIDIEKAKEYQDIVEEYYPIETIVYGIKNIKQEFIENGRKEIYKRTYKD

SMILES	Extent of Eis inhibition of HTS compounds (in words) [1]	inhibition of acetylation by AAC(6′)-Ie/APH(2″)-Ia (in words) (AAC(6′)-Ie/APH(2″)-Ia)	other results
Cc1cc(NS(=O)(=O)c2ccc3[nH]c(=O)c(=O)[nH]c3c2)ccc1Br [Compound 1]	modest Eis inhibition	–	–
O=c1[nH]c2ccc(S(=O)(=O)Nc3ccc(Cl)c(C(F)(F)F)c3)cc2[nH]c1=O [Compound 3]	modest Eis inhibition	–	–
CN(c1ccc(Br)cc1)S(=O)(=O)c1ccc2[nH]c(=O)c(=O)[nH]c2c1 [Compound 29, N-(4-Bromophenyl)-N-methyl-2,3-dioxo-1,2,3,4-tetrahydro-6-quinoxalinesulfonamide]	–	–	Eis inhibition in the HTS (hit or not) [1]: hits
O=c1[nH]c2ccc(S(=O)(=O)Nc3ccc4c(c3)OCCO4)cc2[nH]c1=O [Compound 4]	modest Eis inhibition	–	–
CN(c1ccc2ccccc2c1)S(=O)(=O)c1ccc2[nH]c(=O)c(=O)[nH]c2c1 [Compound 46, N-(2-Naphthyl)-N-methyl-2,3-dioxo-1,2,3,4-tetrahydro-6-quinoxalinesulfonamide]	–	did not inhibit	inhibition of acetylation by AAC(2′)-Ic (in words) (AAC(2′)-Ic): did not inhibit
COc1cccc(N(C)S(=O)(=O)c2ccc3[nH]c(=O)c(=O)[nH]c3c2)c1 [Compound 39, N-(3-Methoxyphenyl)-N-methyl-2,3-dioxo-1,2,3,4-tetrahydro-6-quinoxalinesulfonamide]	–	did not inhibit	–
